In the test the test system is gp100170-190-specific T cell clone (HLA-DRβ1*0701 restricted). Description: IFN-γ release by gp100-specific CD4+ T cell clones co-cultured with EBV-B cells pulsed with peptide or protein (ELISA). The following applies: for Gp100 Peptide Identification (IFN-γ; pg/ml) 10 μM: peptide pulsed at 10 μM on EBV-B cells; for Gp100 Peptide Identification (IFN-γ; pg/ml) 10 μM / Gp100 Peptide Identification (IFN-γ; pg/ml) 50 μM: 24 h co-culture with T cell clone; for Gp100 Peptide Identification (IFN-γ; pg/ml) 50 μM: peptide pulsed at 50 μM on EBV-B cells. The class given is cell-based, human. The text has this: The reactivity of nine representative positive clones is presented in FIG. 1A along with 4 representative negative wells (neg1 to neg4). Eight of the 46 positive clones were expanded and further characterized. […] To further characterize the reactivity, some of the clones were co-cultured with autologous B cells pulsed with a bacterially produced gp100 protein. […] In order to identify the MHC restriction element, antibodies known to bind and block the presentation by defined MHC molecules were used. Recognition by clones 6 and 8 of target cells pulsed with the gp100 protein was inhibited when using blocking antibodies against MHC class II and HLA-DR but the recognition was unchanged when using a blocking MHC class I antibody. […] By using HLA-DR matched B cells, the restriction element was identified as HLA-DRβ1*0701 (patient A is HLA-DRβ1*0701 and *1601; FIG. 2).
To find the epitope recognized, an overlapping gp100 peptide library consisting of 68 peptides of 17 or 21 residues overlapping by 10-12 amino acids was prepared. The autologous EBV-B cells were pulsed with the peptide library and used as targets in a T cell recognition assay using three different T cell clones.
Finally, several peptides were synthesized in order to define an optimal HLA-DRβ1*0701 epitope (Rammensee, H. G. Immunogenetics 41:178-228, 1995; Chicz et al. J. Exp. Med. 178:27-47, 1993). […] Finally, substitutions were made at position 5 of the gp100174-394 peptide presuming that this is position 1 according to the defined motif for HLA-DRβ1*0701 (SYFPEITHI web site, http://syfpeithi.de/). However, none of the peptides were better recognized when pulsed at 10 μM or 1 μM compared to the wild type gp100174-394 peptide.
The gp100 peptide library consisted of 68 peptides of 17 to 21 residues overlapping by 10 to 12 amino acids. The peptides were synthesized by solid phase FMOC methodology as previously described (Parkhurst et al. J. Immunol. 157:2539-2548, 1996). A control peptide derived from the Ig kappa chain known to bind to HLA-DRβ1*0701 was also prepared (Chicz et al. J. Exp. Med. 178:27-47, 1993). Recombinant gp100 protein was made and purified as previously described Touloukian et al. J. Immunol. 164:3535-3542, 2000). Recombinant NY-ESO-1 protein is another tumor antigen (Chen, Y T and L J Old. Cancer J. Sci. Am. 5:16-17, 1999) used as negative control and was made and purified as previously described (Zeng et al. J. Immunol. 165:1153-1159, 2000). EBV-B cells (1×10^5) were pulsed with gp100-purified protein or peptides for 18 hours in 96 well flat-bottom plates and T cells were added directly to the pulsed-B cells for a 24 hours recognition assay. In some experiments, EBV-B cells (5×10^5) were pulsed in 48 well plates for 18 hours and cells were washed twice with PBS. T cells were then co-cultured with the pulsed EBV-B cells in 96 well flat-bottom plates for 24 hours. Supernatants were harvested and human IFN-γ was assayed by ELISA using a commercially available kit (R&D Inc.).
Fifty to one hundred thousand responder cells and 4×10^4-10^5 stimulator cells were mixed in 300 ul of AIM-V medium containing […] IL-2 per well in a 96 flat-well microplate. Target cells (1×10^5) were incubated with 1×10^5 specific T cells in 250 μl of T cell medium (AIM-V-based medium) in 96 well flat-bottom plates. Supernatants were harvested after 24 h and human IFN-γ was assayed by ELISA using a commercially available kit (R&D, Inc.; Minneapolis, Minn.).

Bounds are passed on as bounds.

Turning to GTGRAMLGTHTMEVTVYH [SEQ ID NO:10], the “Gp100 Peptide Identification (IFN-γ; pg/ml) 10 μM” value is 18,770 pg/ml and the “Gp100 Peptide Identification (IFN-γ; pg/ml) 50 μM” value was >25,000 pg/ml.

Regarding GTGRAMLGTHTMEVTVYHRRG [SEQ ID NO:9], the “Gp100 Peptide Identification (IFN-γ; pg/ml) 10 μM” value was 22,910 pg/ml and the “Gp100 Peptide Identification (IFN-γ; pg/ml) 50 μM” value was >25,000 pg/ml.

Take IGTGRAMLGTHTMEVTVYH [SEQ ID NO:11]: the “Gp100 Peptide Identification (IFN-γ; pg/ml) 10 μM” value is reported as 17,590 pg/ml and the “Gp100 Peptide Identification (IFN-γ; pg/ml) 50 μM” value was >25,000 pg/ml.

As for IGTGRAMLGTHTMEVTVYHRR [SEQ ID NO:4], the “Gp100 Peptide Identification (IFN-γ; pg/ml) 10 μM” value is on record as 17,050 pg/ml and the “Gp100 Peptide Identification (IFN-γ; pg/ml) 50 μM” value is recorded as >25,000 pg/ml.

In the case of LSIGTGRAMLGTHTMEVTVYH [SEQ ID NO:3], the “Gp100 Peptide Identification (IFN-γ; pg/ml) 10 μM” value is listed as 21,000 pg/ml and the “Gp100 Peptide Identification (IFN-γ; pg/ml) 50 μM” value is >25,000 pg/ml. The “recognition in overlapping gp100 peptide library screen” value (68 peptides, all at 100 μM, autologous EBV-B cells, one of three T cell clones, FIG. 3A) is “specifically recognized”. Besides, where the note is “gp100170-190-specific T cell clone, peptide pulsed on EBV-B cells, FIG. 3B”, the “peptide concentration below which recognition was undetectable (titration)” value lay in the range of 4 to 10 µM.

As for MLGTHTMEVTVYHRRGSRSYV [SEQ ID NO:16], the “Gp100 Peptide Identification (IFN-γ; pg/ml) 10 μM” value worked out at 52 pg/mL and the “Gp100 Peptide Identification (IFN-γ; pg/ml) 50 μM” value is on record as 5,940 pg/ml.

As to PVSGLSIGTGRAMLGTHTMEV [SEQ ID NO:20], the “Gp100 Peptide Identification (IFN-γ; pg/ml) 10 μM” value is less than 8 pg/mL and the “Gp100 Peptide Identification (IFN-γ; pg/ml) 50 μM” value stood at 19 pg/mL.

For RAMLGTHTMEVTVYHRRGSRS [SEQ ID NO:15], the “Gp100 Peptide Identification (IFN-γ; pg/ml) 10 μM” value was determined as 912 pg/mL and the “Gp100 Peptide Identification (IFN-γ; pg/ml) 50 μM” value is listed as 15,230 pg/ml.

For the sequence SGLSIGTGRAMLGTHTMEVTV [SEQ ID NO:14], the “Gp100 Peptide Identification (IFN-γ; pg/ml) 10 μM” value is 1,655 pg/ml and the “Gp100 Peptide Identification (IFN-γ; pg/ml) 50 μM” value is recorded as 4,200 pg/ml.

Regarding SIGTGRAMLGTHTMEVTVYH [SEQ ID NO:12], the “Gp100 Peptide Identification (IFN-γ; pg/ml) 10 μM” value is given as 20,710 pg/ml and the “Gp100 Peptide Identification (IFN-γ; pg/ml) 50 μM” value was >25,000 pg/ml.

For the sequence SIGTGRAMLGTHTMEVTVYHR [SEQ ID NO:13], the “Gp100 Peptide Identification (IFN-γ; pg/ml) 10 μM” value is 12,210 pg/ml and the “Gp100 Peptide Identification (IFN-γ; pg/ml) 50 μM” value is reported as >25,000 pg/ml.

Regarding TGRAFLGTHTMEVTVYHRRGS [SEQ ID NO:17], the “Gp100 Peptide Identification (IFN-γ; pg/ml) 10 μM” value was 19,390 pg/ml and the “Gp100 Peptide Identification (IFN-γ; pg/ml) 50 μM” value is >25,000 pg/ml.

On to TGRALLGTHTMEVTVYHRRGS [SEQ ID NO:18], for which the “Gp100 Peptide Identification (IFN-γ; pg/ml) 10 μM” value is on record as 23,140 pg/ml and the “Gp100 Peptide Identification (IFN-γ; pg/ml) 50 μM” value was >25,000 pg/ml.

On to TGRAMLGTHTMEVTVYH [SEQ ID NO:2], for which the “Gp100 Peptide Identification (IFN-γ; pg/ml) 10 μM” value is listed as 14,010 pg/ml and the “Gp100 Peptide Identification (IFN-γ; pg/ml) 50 μM” value was >25,000 pg/ml.

Regarding TGRAMLGTHTMEVTVYHR [SEQ ID NO:6], the “Gp100 Peptide Identification (IFN-γ; pg/ml) 10 μM” value is reported as 11,100 pg/ml and the “Gp100 Peptide Identification (IFN-γ; pg/ml) 50 μM” value is >25,000 pg/ml.

With TGRAMLGTHTMEVTVYHRR [SEQ ID NO:7], the “Gp100 Peptide Identification (IFN-γ; pg/ml) 10 μM” value is 11,550 pg/ml and the “Gp100 Peptide Identification (IFN-γ; pg/ml) 50 μM” value is reported as >25,000 pg/ml.

For TGRAMLGTHTMEVTVYHRRG [SEQ ID NO:8], the “Gp100 Peptide Identification (IFN-γ; pg/ml) 10 μM” value was 17,910 pg/ml and the “Gp100 Peptide Identification (IFN-γ; pg/ml) 50 μM” value was >25,000 pg/ml.

On to TGRAMLGTHTMEVTVYHRRGS [SEQ ID NO:5], for which the “Gp100 Peptide Identification (IFN-γ; pg/ml) 10 μM” value is listed as 17,140 pg/ml and the “Gp100 Peptide Identification (IFN-γ; pg/ml) 50 μM” value is recorded as >25,000 pg/ml.

As to TGRAYLGTHTMEVTVYHRRGS [SEQ ID NO:19], the “Gp100 Peptide Identification (IFN-γ; pg/ml) 10 μM” value is recorded as 11,640 pg/ml and the “Gp100 Peptide Identification (IFN-γ; pg/ml) 50 μM” value is >25,000 pg/ml.

The values above are taken from patent US7749967B2, “Peptides of a melanoma antigen and their use in diagnostic, prophylactic, and therapeutic methods” (The United States of America as represented by the …, priority 2001, dated 2010).
